ChEMBL document CHEMBL1201862, “PubChem BioAssay data set” (2004)
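Method: 48-hour compound exposure of cells in 96-well plates, five concentrations, linear interpolation of endpoints. The concentration for 50% growth inhibition is given as GI50.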 Activity calls are given as the source filed them. Cut-off read from the data, not from the text of the source: active = GI50 up to about 1.1 µM and inactive = higher.

Assays:
Assay in all cases: NCI anticancer screen, dose series, 48 h
BT-549 = system: BT-549
DLD-1 = system: DLD-1
DMS-114 = system: DMS-114
DMS-273 = system: DMS-273
HOP-18 = system: HOP-18
KM-20L2 = system: KM-20L2
XF498 = system: XF498
SNB-78 = system: SNB-78
RXF 631 = system: RXF 631

**Q.** With `O=C(Nc1ccccc1)N(CCCCN(Cc1ccccc1)C(=O)Nc1ccccc1)Cc1ccccc1` as the compound, how does the GI50 (BT-549) read?
**A.** The GI50 was > 100 µM (inactive).

**Q.** `O=C1CC(=O)n2cnc3cccc(c32)N1` was tested. Which GI50 (BT-549) did it give?
**A.** The GI50 was > 100 µM (inactive).

**Q.** How did the GI50 (DLD-1) turn out when `CC(=O)ON(C(C)=O)C1C(COC(c2ccccc2)(c2ccccc2)c2ccccc2)OC2OC3(CCCC3)OC21` (stereo not drawn) was run?
**A.** Its GI50 is 5.32 µM (inactive).

**Q.** And the GI50 (DMS-114)?
**A.** The GI50 was 5.5 µM (inactive).

**Q.** And the GI50 (DMS-273)?
**A.** Its GI50 is 3.57 µM (inactive).

**Q.** And the GI50 (HOP-18)?
**A.** Its GI50 is 49.3 µM (inactive).

**Q.** What about the GI50 (KM-20L2) of the same compound?
**A.** The GI50 was 5.19 µM (inactive).

**Q.** And the GI50 (XF498)?
**A.** Its GI50 is 5.19 µM (inactive).

**Q.** Which results are given for `CN(C)CN(C)c1nc(N(C)C)nc(N(C)C)n1`?
**A.** GI50 (DLD-1): > 100 µM (inactive); GI50 (DMS-114): 90.2 µM (inactive); GI50 (DMS-273): > 100 µM (inactive); GI50 (HOP-18): > 100 µM (inactive); GI50 (KM-20L2): > 100 µM (inactive); GI50 (SNB-78): > 100 µM (inactive); GI50 (XF498): > 100 µM (inactive)

**Q.** Which results are given for `CCOC(C[C@H](O)[C@H]1COC(=S)S1)OCC`?
**A.** GI50 (DMS-114): > 100 µM (inactive); GI50 (DMS-273): > 100 µM (inactive); GI50 (KM-20L2): > 100 µM (inactive); GI50 (XF498): > 100 µM (inactive)

**Q.** With `COc1ccc(C2c3cc4c(cc3C(O)C3CCC(=O)N23)OCO4)cc1` (stereo not drawn) as the compound, how does the GI50 (BT-549) read?
**A.** Its GI50 is 96.4 µM (inactive).

**Q.** For `CNc1ncnc2c1ncn2C1C=CC(COS(N)(=O)=O)C1` (stereo not drawn), which GI50 (BT-549) is on record?
**A.** The GI50 was > 100 µM (inactive).

**Q.** How did the GI50 (DLD-1) turn out when `O=C(c1ccccc1)[C@H]1Nc2ccc(Cl)cc2C2c3ccccc3CC21` (stereo partly drawn) was run?
**A.** The GI50 was > 100 µM (inactive).

**Q.** What about the GI50 (DMS-114) of the same compound?
**A.** The GI50 was 69.3 µM (inactive).

**Q.** And the GI50 (DMS-273)?
**A.** Its GI50 is 66.8 µM (inactive).

**Q.** And the GI50 (KM-20L2)?
**A.** Its GI50 is > 100 µM (inactive).

**Q.** And the GI50 (RXF 631)?
**A.** Its GI50 is 27.8 µM (inactive).

**Q.** And the GI50 (SNB-78)?
**A.** The GI50 was > 100 µM (inactive).

**Q.** What about the GI50 (XF498) of the same compound?
**A.** The GI50 was 21.5 µM (inactive).

**Q.** For `O=[N+]([O-])c1ccc(-c2cc(O)c3nc4ccccc4n3c2)cc1`, which GI50 (BT-549) is on record?
**A.** Its GI50 is > 100 µM (inactive).

**Q.** How did the GI50 (BT-549) turn out when `CN(c1c(Cl)cccc1Cl)S(=O)(=O)c1ccccc1[N+](=O)[O-]` was run?
**A.** The GI50 was > 100 µM (inactive).

**Q.** How did the GI50 (BT-549) turn out when `c1ccc2c(c1)CCc1[nH]c3c(c1-2)-c1ccccc1CC3` was run?
**A.** The GI50 was > 100 µM (inactive).

**Q.** Which GI50 (BT-549) does the source give for `COc1ccc(/N=c2\ssc(C(=S)Nc3ccc(OC)cc3)c2S)cc1` here?
**A.** The GI50 was > 100 µM (inactive).

**Q.** For `N#Cc1ccc(/C=N\N2C(=O)c3ccccc3C2=O)cc1`, which GI50 (DLD-1) is on record?
**A.** The GI50 was > 100 µM (inactive).

**Q.** What about the GI50 (DMS-114) of the same compound?
**A.** Its GI50 is > 100 µM (inactive).

**Q.** What about the GI50 (DMS-273) of the same compound?
**A.** Its GI50 is > 100 µM (inactive).

**Q.** And the GI50 (HOP-18)?
**A.** Its GI50 is > 100 µM (inactive).

**Q.** What about the GI50 (KM-20L2) of the same compound?
**A.** The GI50 was > 100 µM (inactive).

**Q.** What about the GI50 (SNB-78) of the same compound?
**A.** Its GI50 is > 100 µM (inactive).

**Q.** And the GI50 (XF498)?
**A.** The GI50 was > 100 µM (inactive).

**Q.** Which GI50 (BT-549) does the source give for `CCCN(CCC)C(=S)Sc1nc(C)nc(N2CCN(c3nc(C)nc(SC(=S)N(CCC)CCC)c3[N+](=O)[O-])CC2)c1[N+](=O)[O-]` here?
**A.** The GI50 was 5.2 µM (inactive).

**Q.** With `CC(=O)Nc1ccc(OC/C(N)=N/NC(=O)c2ccncc2)cc1` as the compound, how does the GI50 (BT-549) read?
**A.** Its GI50 is > 100 µM (inactive).

**Q.** With `O=C1N[C@@H]2c3c(Br)sc(Br)c3C(=O)[C@@H]2O1` as the compound, how does the GI50 (BT-549) read?
**A.** The GI50 was 8.57 µM (inactive).

**Q.** For `C/C(=N/N)c1sc(-c2nc(C)c(/C(C)=N\N)s2)nc1C`, which GI50 (DLD-1) is on record?
**A.** Its GI50 is > 67.9 µM (inactive).

**Q.** And the GI50 (DMS-114)?
**A.** Its GI50 is > 46.7 µM (inactive).

**Q.** And the GI50 (DMS-273)?
**A.** The GI50 was > 41.3 µM (inactive).

**Q.** What about the GI50 (HOP-18) of the same compound?
**A.** Its GI50 is > 67.1 µM (inactive).

**Q.** And the GI50 (KM-20L2)?
**A.** Its GI50 is > 100 µM (inactive).

**Q.** And the GI50 (SNB-78)?
**A.** The GI50 was > 100 µM (inactive).

**Q.** And the GI50 (XF498)?
**A.** The GI50 was 38.2 µM (inactive).

**Q.** How did the GI50 (BT-549) turn out when `O=C(Nc1ccn(C2CC(I)C(COC(c3ccccc3)(c3ccccc3)c3ccccc3)O2)c(=O)n1)c1ccccc1` (stereo not drawn) was run?
**A.** The GI50 was 25.6 µM (inactive).

**Q.** For `CN(C)CC1CN/C(=N\C(=O)Nc2ccccc2)O1` (stereo not drawn), which GI50 (BT-549) is on record?
**A.** The GI50 was > 100 µM (inactive).

**Q.** `CCC(C)C(NC(=O)c1c2ccccc2nc2ccccc12)C(=O)O` (stereo not drawn) was tested. Which GI50 (BT-549) did it give?
**A.** The GI50 was 22.6 µM (inactive).

**Q.** For `N=C(/C=C/c1ccc(-c2cn3cc(/C=C/C(=N)N4CCOCC4)ccc3n2)cc1)N1CCOCC1`, which GI50 (BT-549) is on record?
**A.** Its GI50 is > 100 µM (inactive).

**Q.** With `CN(C)c1ccc(C=C2N=C(c3ccccc3)N(c3cc(C(=O)c4ccccc4)ccc3N3C(=O)/C(=C/c4ccc(N(C)C)cc4)N=C3c3ccccc3)C2=O)cc1` as the compound, how does the GI50 (BT-549) read?
**A.** The GI50 was 28.3 µM (inactive).

**Q.** What does the source list for `Cc1cc(C)c(/C=N/NS(=O)(=O)c2ccccc2)c(C)c1`?
**A.** GI50 (DLD-1): 91.8 µM (inactive); GI50 (DMS-114): 60.4 µM (inactive); GI50 (DMS-273): > 100 µM (inactive); GI50 (HOP-18): 59 µM (inactive); GI50 (KM-20L2): > 100 µM (inactive); GI50 (RXF 631): > 100 µM (inactive); GI50 (SNB-78): > 100 µM (inactive)

**Q.** With `Cc1ccc(CS(=O)(=O)C/N=C2\Sc3ccccc3N\C2=C/C(=O)c2ccc(Cl)cc2)cc1` as the compound, how does the GI50 (BT-549) read?
**A.** The GI50 was > 10 µM (inactive).

**Q.** Which GI50 (BT-549) does the source give for `Cc1n[n+](Cc2ccccc2)c2sc(N)nn12` here?
**A.** Its GI50 is 38.4 µM (inactive).

**Q.** For `Cc1c(Cc2ccccc2)c(Cc2ccccc2)c(C)[s+]1[O-]`, which GI50 (BT-549) is on record?
**A.** Its GI50 is 33.2 µM (inactive).

**Q.** For `COC(=O)[C@H](C)NC(=O)[C@H](CSC)N1C(=O)N[C@@H](C(C)C)C1=O`, which GI50 (BT-549) is on record?
**A.** The GI50 was > 100 µM (inactive).

**Q.** `C/C=C(\C)C(=O)OC1/C=C(\C)CC/C=C(\C)CC2OC(=O)C(C)(OC(C)=O)C12` (stereo not drawn) was tested. Which GI50 (BT-549) did it give?
**A.** Its GI50 is > 100 µM (inactive).

**Q.** For `COc1cc(N(CCC#N)CCC#N)ccc1C(/N=N/c1cccc([N+](=O)[O-])c1)=N\NC(=O)c1ccc(C)cc1`, which GI50 (BT-549) is on record?
**A.** Its GI50 is 22 µM (inactive).

**Q.** Which GI50 (BT-549) does the source give for `Cc1cn(C2CC(N=[N+]=[N-])C(CO[Si](C)(C)C(C)(C)C)O2)c(=O)[nH]c1=O` (stereo not drawn) here?
**A.** Its GI50 is 10.7 µM (inactive).

**Q.** For `CN1C/C(=C\c2ccco2)c2nc(N)nc(-c3ccco3)c2C1`, which GI50 (DLD-1) is on record?
**A.** The GI50 was > 100 µM (inactive).

**Q.** What about the GI50 (DMS-114) of the same compound?
**A.** Its GI50 is > 100 µM (inactive).

**Q.** What about the GI50 (DMS-273) of the same compound?
**A.** The GI50 was 88.1 µM (inactive).

**Q.** What about the GI50 (KM-20L2) of the same compound?
**A.** The GI50 was > 100 µM (inactive).

**Q.** What about the GI50 (XF498) of the same compound?
**A.** The GI50 was 23.6 µM (inactive).

**Q.** `C1=CC=C2NCCCCCC/N=C3\C=CC=CC=C3NCCc3cccc(c3)CC/N=C/2C=C1` was tested. Which GI50 (DLD-1) did it give?
**A.** The GI50 was 36.6 µM (inactive).

**Q.** What about the GI50 (DMS-114) of the same compound?
**A.** The GI50 was 13.3 µM (inactive).

**Q.** What about the GI50 (DMS-273) of the same compound?
**A.** Its GI50 is 10.2 µM (inactive).

**Q.** And the GI50 (KM-20L2)?
**A.** The GI50 was 4.81 µM (inactive).

**Q.** What about the GI50 (RXF 631) of the same compound?
**A.** The GI50 was 11.2 µM (inactive).

**Q.** What about the GI50 (SNB-78) of the same compound?
**A.** Its GI50 is > 100 µM (inactive).

**Q.** Which GI50 (BT-549) does the source give for `C=CCOc1ccc(C2C(C(=O)OCC)C(=O)CC(C)(O)C2C(=O)OCC)cc1OC` (stereo not drawn) here?
**A.** Its GI50 is > 100 µM (inactive).

**Q.** How did the GI50 (DMS-114) turn out when `CCOC(=O)Oc1cc2c(c(OC)c1OC)-c1ccc(OC)c(=O)cc1C(NC(C)=O)CC2` (stereo not drawn) was run?
**A.** Its GI50 is 0.0137 µM (active).

**Q.** What about the GI50 (DMS-273) of the same compound?
**A.** The GI50 was < 0.01 µM (active).

**Q.** And the GI50 (KM-20L2)?
**A.** Its GI50 is 0.0416 µM (active).

**Q.** And the GI50 (RXF 631)?
**A.** Its GI50 is 0.0565 µM (active).

**Q.** What about the GI50 (SNB-78) of the same compound?
**A.** The GI50 was 0.0156 µM (active).

**Q.** What about the GI50 (XF498) of the same compound?
**A.** Its GI50 is 0.0432 µM (active).

**Q.** How did the GI50 (BT-549) turn out when `COc1cc2c[n+](C)c3c4cc(OC)c(OC)cc4c(OCc4ccccc4)cc3c2cc1OC` was run?
**A.** Its GI50 is 0.32 µM (active).

**Q.** Which GI50 (BT-549) does the source give for `CC1=NN(c2nc(N)nc(CSc3cc(Cl)c(C)cc3S(N)(=O)=O)n2)C(C)(C)C1` here?
**A.** Its GI50 is > 10 µM (inactive).
